Assay results: patent US20250074896A1, “ARYLTETRAHYDROPYRIDAZINE DERIVATIVE OR SALT THEREOF AND INSECTICIDAL AGENT CONTAINING THE COMPOUND AND METHOD FOR USING SAME” (NIHON NOHYAKU CO., LTD., priority 2021, published 2025)
Like-named read-outs stand apart in the source and are kept apart here.

What was measured:
Assay type in all cases: in vivo
[1] = tested on: Diamondback moth (Plutella xylostella); assay: Insecticidal test on diamondback moth (dip treatment of Chinese cabbage seedlings with laid eggs); conditions: 144 h, read-out: insecticidal efficacy (corrected mortality rate) against diamondback moth
Description: Insecticidal Test on Diamondback moth (Plutella xylostella)
Adults of diamondback moth were released onto Chinese cabbage seedlings and allowed to lay eggs thereon. At 2 days after the release of the adults, the Chinese cabbage seedlings with laid eggs were dipped for about 30 seconds in agrochemical dispersions diluted to 50 ppm or 500 ppm, each of which contained a different compound represented by the general formula (1) of the present invention as an active ingredient. After air-dried, the seedlings were kept in a thermostatic chamber at 25° C. At 6 days after the dip treatment, the number of surviving larvae per plot was counted, the corrected mortality rate was calculated according to the formula shown below, and the insecticidal efficacy was evaluated according to the criteria shown below. This test was conducted in triplicate using 10 adults of diamondback moth per plot.
(§1) • A: the mortality rate is 100%. • B: the mortality rate is 90 to 99%. • C: the mortality rate is 80 to 89%. • D: the mortality rate is 50 to 79%. • E: the mortality rate is 0 to 49%.

[2] = tested on: Western Flower Thrips (Frankliniella occidentalis); assay: Insecticidal test on western flower thrips (kidney bean leaf pieces, hatched larvae); conditions: 96 h, read-out: insecticidal efficacy (corrected mortality rate) against western flower thrips
Description: as §1
Insecticidal Test on Western Flower Thrips (Frankliniella occidentalis)
Female adults of western flower thrips were inoculated onto kidney bean leaf pieces, and allowed to lay eggs thereon for one day, then the female adults were removed. After 3 days, the hatched larvae on the leaf pieces were counted, and then the agrochemical dispersions diluted to 50 ppm or 500 ppm, each of which contained the compound described in Tables 1 to 6 as an active ingredient were applied. The number of larvae of the species surviving at 4 days after the treatment was counted, and the corrected mortality rate was calculated according to the formula shown below, and the insecticidal efficacy was evaluated according to the criteria of Test Example 1. This test was conducted in duplicate.

[3] = tested on: Small Brown Planthopper (Laodelphax striatellus); assay: Insecticidal test on small brown planthopper (dipped rice seedlings, 3rd-instar larvae); conditions: 192 h, rice seedlings dipped 30 seconds, 8 days after inoculation, read-out: insecticidal efficacy (corrected mortality rate) against small brown planthopper
Description: as §1
Insecticidal Test on Small Brown Planthopper (Laodelphax striatellus)
The compounds represented by the general formula (1) of the present invention or salts thereof were separately dispersed in water and diluted to 50 ppm or 500 ppm. Rice plant seedlings (variety: Nihonbare) were dipped in the agrochemical dispersions for 30 seconds. After air-dried, each seedling was put into a separate glass test tube and inoculated with ten 3rd-instar larvae of small brown planthopper, and then the glass test tubes were capped with cotton plugs. At 8 days after the inoculation, the numbers of surviving larvae and dead larvae were counted, the corrected mortality rate was calculated according to the formula shown below, and the insecticidal efficacy was evaluated according to the criteria of Test Example 1.

[4] = dip about 30 seconds, 6 days after treatment, 25° C.
[5] = 500 ppm, dip about 30 seconds, 6 days after treatment, 25° C.
[6] = 500 ppm, 4 days after the treatment

CNC(=S)N1C(=O)C(C(=O)Nc2ccc(F)cc2)=C(O)CN1c1ccc(C(F)(F)F)nc1 [3-362, N-(4-fluorophenyl)-5-hydroxy-2-(methylcarbamothioyl)-3-oxo-1-(6-(trifluoromethyl)pyridin-3-yl)-1,2,3,6-tetrahydropyridazine-4-carboxamide]
100%: mortality at 50 ppm [1, 4] | mortality at 500 ppm [1, 5] | mortality at 50 ppm ([2]; 4 days after the treatment) | mortality at 500 ppm [2, 6]

CC(C)(C)OC(=O)N1C(=O)C(C(=O)Nc2ccc(F)cc2)=C(O)CN1c1ccc(C(F)(F)F)nc1 [3-308, tert-butyl 5-((4-fluorophenyl)carbamoyl)-4-hydroxy-6-oxo-2-(6-(trifluoromethyl)pyridin-3-yl)-2,3-dihydropyridazine-1(6H)-carboxylate]
100%: mortality at 50 ppm [3] | mortality at 500 ppm [3] | mortality at 50 ppm [1, 4] | mortality at 500 ppm [1, 5] | mortality at 50 ppm ([2]; 4 days after the treatment) | mortality at 500 ppm [2, 6]

N#Cc1ccc(N2CC(O)=C(C(=O)Nc3ccc(F)cc3)C(=S)N2)cn1 [6-6, 1-(6-cyanopyridin-3-yl)-N-(4-fluorophenyl)-5-hydroxy-3-thioxo-1,2,3,6-tetrahydropyridazine-4-carboxamide]
100%: mortality at 500 ppm [3] | mortality at 500 ppm [1, 5] | mortality at 500 ppm [2, 6]

CCNC(=O)N1C(=O)C(C(=O)Nc2ccc(F)cc2)=C(O)CN1c1ccc(C(F)(F)F)nc1 [3-22, N^1-ethyl-N^5-(4-fluorophenyl)-4-hydroxy-6-oxo-2-(6-(trifluoromethyl)pyridin-3-yl)-2,3-dihydropyridazine-1,5(6H)-dicarboxamide]
100%: mortality at 500 ppm [3] | mortality at 500 ppm [1, 5] | mortality at 50 ppm ([2]; 4 days after the treatment) | mortality at 500 ppm [2, 6]

CCCNC(=O)N1C(=O)C(C(=O)Nc2ccn(C)n2)=C(O)CN1c1ccc(C#N)cc1 [3-563, N^5-(1-methyl-1H-pyrazol-3-yl) N^1-propyl 4-hydroxy-6-oxo-2-(4-cyanophenyl)-2,3-dihydropyridazine-1,5(6H)-dicarboxamide]
100%: mortality at 50 ppm [3] | mortality at 500 ppm [3]

CC(C)(C)OC(=O)N1C(=O)C(C(=S)Nc2ccc(F)cc2)=C(O)CN1c1ccc(C(F)(F)F)nc1 [4-34, tert-butyl 5-((4-fluorophenyl)carbamothioyl)-4-hydroxy-6-oxo-2-(6-(trifluoromethyl)pyridin-3-yl)-2,3-dihydropyridazine-1(6H)-carboxylate]
100%: mortality at 50 ppm [3] | mortality at 500 ppm [3] | mortality at 50 ppm [1, 4] | mortality at 500 ppm [1, 5] | mortality at 50 ppm ([2]; 4 days after the treatment) | mortality at 500 ppm [2, 6]

COC(=O)N1C(=O)C(C(=O)Nc2ccn(C)n2)=C(O)CN1c1ccc(C#N)cc1 [3-437, methyl 2-(4-cyanophenyl)-4-hydroxy-5-((1-methyl-1H-pyrazol-3-yl)carbamoyl)-6-oxo-2,3-dihydropyridazine-1(6H)-carboxylate]
100%: mortality at 50 ppm [3] | mortality at 500 ppm [3] | mortality at 50 ppm ([2]; 4 days after the treatment) | mortality at 500 ppm [2, 6]

O=C(Nc1ccc(F)cc1)C1=C(S)CN(c2ccc(C(F)(F)F)nc2)NC1=O [5-2, N-(4-fluorophenyl)-5-mercapto-3-oxo-1-(6-(trifluoromethyl)pyridin-3-yl)-1,2,3,6-tetrahydropyridazine-4-carboxamide]
100%: mortality at 50 ppm [3] | mortality at 500 ppm [3] | mortality at 50 ppm [1, 4] | mortality at 500 ppm [1, 5] | mortality at 50 ppm ([2]; 4 days after the treatment) | mortality at 500 ppm [2, 6]

CSC1=C(C(=O)Nc2ccc(F)cc2)C(=O)N(C(=O)OC(C)(C)C)N(c2ccc(C(F)(F)F)nc2)C1 [5-11, tert-butyl 5-((4-fluorophenyl)carbamoyl)-4-methylsulfanyl-6-oxo-2-(6-(trifluoromethyl)pyridin-3-yl)-2,3-dihydropyridazine-1(6H)-carboxylate]
100%: mortality at 50 ppm [3] | mortality at 500 ppm [3] | mortality at 50 ppm [1, 4] | mortality at 500 ppm [1, 5] | mortality at 50 ppm ([2]; 4 days after the treatment) | mortality at 500 ppm [2, 6]

O=C(Nc1ccc(C(F)(F)F)cc1)C1=C(O)CN(c2ccc(C(F)(F)F)nc2)NC1=O [1-85, N-(4-trifluoromethylphenyl)-5-hydroxy-3-oxo-1-(6-(trifluoromethyl)pyridin-3-yl)-1,2,3,6-tetrahydropyridazine-4-carboxamide]
100%: mortality at 500 ppm [1] | mortality at 500 ppm [2]

CC(C)(C)OC(=O)N1C(=O)C(C(=O)Nc2ccc(F)cc2)=C(S)CN1c1ccc(C(F)(F)F)nc1 [5-7, tert-butyl 5-((4-fluorophenyl)carbamoyl)-4-mercapto-6-oxo-2-(6-(trifluoromethyl)pyridin-3-yl)-2,3-dihydropyridazine-1(6H)-carboxylate]
100%: mortality at 50 ppm [3] | mortality at 500 ppm [3] | mortality at 50 ppm [1, 4] | mortality at 500 ppm [1, 5] | mortality at 50 ppm ([2]; 4 days after the treatment) | mortality at 500 ppm [2, 6]
